In US11793820B2, “Dry powder foamable formulations for delivery of medicaments through the mucosa” (priority 2021, dated 2023):

Tests used:
[1] = Safety and tolerability of the oral rinse; assay type: in vivo, human; conditions: for safe administration: 200 mg WR-2721 (10 ml 0.09 M) or 125 mg WR-1065 (10 ml 0.09 M)
Description: The amifostine is administered to the patient in the formulation described above (Table 2). Specifically, 125 mg of amifostine is provided as an oral rinse. The patient rinses for approximately one minute and thereafter, expels/discards the rinse. The rinse process can be repeated.
In this study, WR-1065 is detected in washed, isolated, vital mouth mucosa cells at a concentration of about 3.7-19.9 ng/10^5 cells.

[2] = test system: epirubicin-induced oral mucositis; conditions: cited from earlier work
[3] = intravenous administration; cited from earlier work
[4] = cited from earlier work
[5] = after amifostine injection; cited from earlier work

Compound | safe administration [1] | difference between patients given amifostine oral rinse and control [2] | clearance from the plasma [3] | pH of the maximal rate of hydrolysis ([4]; hydrolysis of P-S bond to WR-1065) | stability at the gastric pH ([4]; pH from 1 to 3) | systemic side-effects ([1]; oral rinse) | tolerability ([1]; oral rinse) | time of maximum tissue concentrations of WR-1065 [5]
NCCCNCCSP(=O)(O)O [Amifostine, S-2-(3-aminopropylamino) ethyl dihydrogen phosphorothioate] | can be safely administered | no significant difference | rapidly cleared | 3.0 | unstable | – | – | –
NCCCNCCS [WR-1065] | can be safely administered | – | – | – | – | no systemic side-effects | well-tolerated | within five to fifteen minutes
